Consider 45 compounds from US20110071158A1, “NEW COMPOUNDS” (BOEHRINGER INGELHEIM INTERNATIONAL GMBH, priority 2009, published 2011).

The structures appear in SMILES notation.

In the test the target is T1, PTK2 enzyme (Homo sapiens, UniProt Q05397).
T1 construct: purchased Invitrogen PV3832
T1 sequence (Q05397 whole entry): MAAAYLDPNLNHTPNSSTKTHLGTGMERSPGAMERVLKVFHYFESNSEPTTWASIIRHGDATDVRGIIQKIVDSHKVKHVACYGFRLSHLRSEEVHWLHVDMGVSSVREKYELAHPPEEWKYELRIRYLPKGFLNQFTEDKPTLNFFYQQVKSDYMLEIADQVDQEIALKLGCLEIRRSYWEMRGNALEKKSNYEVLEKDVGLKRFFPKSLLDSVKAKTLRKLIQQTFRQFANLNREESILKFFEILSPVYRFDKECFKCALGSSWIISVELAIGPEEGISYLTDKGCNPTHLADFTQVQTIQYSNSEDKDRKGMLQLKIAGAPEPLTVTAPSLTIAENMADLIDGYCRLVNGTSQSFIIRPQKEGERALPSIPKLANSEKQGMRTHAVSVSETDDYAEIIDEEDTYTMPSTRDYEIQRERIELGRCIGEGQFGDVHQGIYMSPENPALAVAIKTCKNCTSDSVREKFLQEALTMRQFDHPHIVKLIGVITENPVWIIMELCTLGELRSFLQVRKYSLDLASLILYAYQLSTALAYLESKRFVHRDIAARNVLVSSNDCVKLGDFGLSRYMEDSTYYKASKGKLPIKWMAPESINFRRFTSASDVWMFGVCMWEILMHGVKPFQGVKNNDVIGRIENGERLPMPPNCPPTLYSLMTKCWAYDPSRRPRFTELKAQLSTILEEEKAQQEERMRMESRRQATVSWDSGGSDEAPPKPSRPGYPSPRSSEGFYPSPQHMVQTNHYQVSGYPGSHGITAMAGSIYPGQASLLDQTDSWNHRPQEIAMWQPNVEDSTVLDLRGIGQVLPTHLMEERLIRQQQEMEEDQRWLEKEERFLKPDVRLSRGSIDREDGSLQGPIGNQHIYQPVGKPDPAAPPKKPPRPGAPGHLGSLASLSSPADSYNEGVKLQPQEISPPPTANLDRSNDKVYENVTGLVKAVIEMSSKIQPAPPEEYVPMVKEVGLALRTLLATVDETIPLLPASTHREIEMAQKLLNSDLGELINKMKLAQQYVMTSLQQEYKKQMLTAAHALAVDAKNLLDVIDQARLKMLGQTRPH
Kind of test: PTK2 enzyme test, Assay 1 (DELFIA, poly-Glu-Tyr substrate, antibody PT60). Format: biochemical. The conditions noted are these: Assay 1 (values without *); 1 h pre-incubation, 2% DMSO. The protocol: This test uses active PTK2 enzyme (Invitrogen Code PV3832) and poly-Glu-Tyr (4:1, Sigma P-0275) as the kinase substrate. The kinase activity is detected through the phosphorylation of the substrate in a DELFIA™ assay. The phosphorylated substrate is detected with the europium-labelled phosphotyrosine antibody PT60 (Perkin Elmer, No.: AD00400).
In order to determine concentration-activity curves with PTK2-inhibitors the compounds are serially diluted in 10% DMSO/H2O and 10 μL of each dilution are placed in each well of a 96-well microtitre plate (clear plate with a U-shaped base, Greiner No. 650101) (the inhibitors are tested in duplicates) and mixed with 10 μL/well of PTK2 kinase (0.01 μg/well). PTK2 kinase has been correspondingly diluted beforehand with kinase dilution buffer (20 mM TRIS/HCl pH 7.5, 0.1 mM EDTA, 0.1 mM EGTA, 0.286 mM sodium orthovanadate, 10% glycerol with the addition of freshly prepared BSA (fraction V, 1 mg/mL) and DTT (1 mM)). The test compound and the PTK2 kinase are pre-incubated for 1 h at RT and shaken at 500 revolutions per min. The reaction is started by the addition of 10 μL/well poly (Glu,Tyr) substrate (25 μg/well poly (Glu, Tyr), 0.05 μg/well biotinylated poly (Glu,Tyr) dissolved in 250 mM TRIS/HCl pH 7.5, 9 mM DTT)—the final concentration of DMSO is 2%. Then 20 μL of ATP Mix (30 mM TRIS/HCl pH 7.5, 0.02% Brij, 0.2 mM sodium orthovanadate, 10 mM magnesium acetate, 0.1 mM EGTA, 1× phosphatase inhibitor cocktail 1 (Sigma, No.: P2850), 50 μM ATP (Sigma, No.: A3377; 15 mM stock solution)) are added. After 1 h of kinase reaction (the plates are shaken at 500 rpm), the reaction is stopped by the addition of 12 μL/well 100 mM EDTA, pH 8.0 and shaken for a further 5 min at RT (500 rpm). 55 μL of the reaction mixture are transferred into a streptavidin plate (Strepta Well High Bind (transparent, 96-well) made by Roche, No.: 11989685001) and incubated for 1 h at RT (shaking at 500 rpm). Then the microtitre plate is washed three times with 200 μL/well D-PBS (Invitrogen, No. 14190). 100 μL of a solution containing DELFIA Eu-N1 Anti-Phosphotyrosine PT60 antibody (Perkin Elmer, No.: AD0040, diluted 1:2000 in DELFIA test buffer (Perkin Elmer, No.: 1244-111)) is then added and the mixture is incubated for 1 h at RT (shaking at 500 rpm). Then the plate is washed three times with 200 μL/well DELFIA washing buffer (Perkin Elmer, No.: 1244-114), 200 μL/well strengthening solution (Perkin Elmer, No.: 1244-105) are added and the mixture is incubated for 10 min at RT (shaking at 300 rpm).
The time-delayed europium fluorescence is then measured in a microtitre plate reader (VICTOR^3, Perkin Elmer). […] Wells that contain test buffer instead of enzyme are used as a control of the background kinase activity.
The IC50 values are determined from analyses of the concentration activity by iterative calculation with the aid of a sigmoid curve analysis algorithm (FIFTY, based on Graph PAD Prism Version 3.03) with a variable Hill coefficient.
For orientation: IC50 means the concentration that inhibits the measured activity by half. Read a low IC50 as greater potency. The compound `CNC(=O)c1cc(OC)c(Nc2ncc(C(F)(F)F)c(N[C@@H]3CCCC[C@H]3NC(C)=O)n2)cc1F` [Example I-85] showed an IC50 of 2 nM.
The result for `COCC(=O)N(C)[C@@H]1CCCC[C@H]1Nc1nc(Nc2ccc(C(=O)NC3CCN(C)CC3)cc2OC)ncc1C(F)(F)F` [Example I-3, 3-methoxy-4-(4-{(1R,2R)-2-[(2-methoxy-acetyl)-methyl-amino]-cyclohexylamino}-5-trifluoromethyl-pyrimidin-2-ylamino)-N-(1-methyl-piperidin-4-yl)-benzamide] reads 10 nM.
The result for `COc1cc(C(=O)NC2CCCN(C)C2)ccc1Nc1ncc(C(F)(F)F)c(N[C@@H]2CCCC[C@H]2NC(C)=O)n1` (stereo partly drawn) [Example I-41] reads 2 nM.
The result for `COc1cc(N2CCN(C)CC2)ccc1Nc1ncc(C(F)(F)F)c(N[C@@H]2CCCC[C@H]2NC(C)=O)n1` [Example I-29] reads 1 nM.
For `CCC(=O)N[C@@H]1CCCC[C@H]1Nc1nc(Nc2cc(F)c(C(=O)NC3CCN(C)CC3)cc2OC)ncc1C(F)(F)F` [Example I-120], inhibition was half-maximal at 2 nM (IC50).
On to `COc1cc(N2CCN(C)CC2)ccc1Nc1ncc(C(F)(F)F)c(N[C@@H]2CCCC[C@H]2N(C)C(C)=O)n1` [Example I-101], for which 2 nM corresponded to half-maximal inhibition (IC50).
Compound `CNC(=O)c1ccc(Nc2ncc(Cl)c(N[C@@H]3CCCC[C@H]3NC(C)=O)n2)c(OC)c1` [Example I-56] displayed a concentration for half-maximal inhibition (IC50) of 3 nM.
The result for `COc1cc(C(=O)NC2CCN(C)CC2)c(Cl)cc1Nc1ncc(Cl)c(N[C@@H]2CCCC[C@H]2N(C)S(C)(=O)=O)n1` [Example I-168] reads 3 nM.
Then `COc1cc(C(=O)NC2CCN(C3CC3)CC2)ccc1Nc1ncc(Cl)c(N[C@@H]2CCCC[C@H]2NC(C)=O)n1` [Example I-63], with 3 nM; and `COc1cc(C(=O)NC2CCN(C)CC2)ccc1Nc1ncc(C(F)(F)F)c(N[C@@H]2CCCC[C@H]2N(C)C(=O)C(C)C)n1` [Example I-80], with 9 nM; and `CCC(=O)N[C@@H]1CCCC[C@H]1Nc1nc(Nc2ccc(CNC)cc2OC)ncc1C(F)(F)F` [Example I-77], with 2 nM.
For `CCN([C@@H]1CCCC[C@H]1Nc1nc(Nc2ccc(NC(C)=O)c(C)c2)ncc1C(F)(F)F)S(C)(=O)=O` [Example I-188], the IC50 is 16 nM.
The result for `CNCc1ccc(Nc2ncc(C(F)(F)F)c(N[C@@H]3CCCC[C@H]3NC(=O)C(C)C)n2)c(OC)c1` [Example I-79] reads 3 nM.
The result for `CCN(C(C)=O)[C@@H]1CCCC[C@H]1Nc1nc(Nc2ccc(C(=O)NC3CCN(C)CC3)cc2OC)ncc1C(F)(F)F` [Example I-99] reads 3 nM; that for `COc1cc(C(=O)NC2CCCN(C)C2)ccc1Nc1ncc(C(F)(F)F)c(N[C@@H]2CCCC[C@H]2NC(C)=O)n1` (stereo partly drawn) [Example I-10], 3 nM; that for `COc1cc(C(=O)NC2CCN(C)CC2)ccc1Nc1ncc(C(F)(F)F)c(N[C@@H]2CCCC[C@H]2NC(=O)CC(C)C)n1` [Example I-14], 32 nM.
`COc1cc(C(=O)NC2CCN(C)CC2)ccc1Nc1ncc(C(F)(F)F)c(N[C@@H]2CCCC[C@H]2NC(=O)C2CC2)n1` [Example I-20]: 1 nM corresponded to half-maximal inhibition (IC50).
The result for `COc1cc(C(=O)NC2CCN(C)CC2)ccc1Nc1ncc(Br)c(N[C@@H]2CCCC[C@H]2NC(C)=O)n1` [Example I-50] reads 1 nM; that for `CCN1CCC(NC(=O)c2cc(OC)c(Nc3ncc(C(F)(F)F)c(N[C@@H]4CCCC[C@H]4NC(C)=O)n3)cc2F)CC1` [Example I-87], 2 nM; that for `COc1cc(C(=O)NCCN(C)C)c(F)cc1Nc1ncc(Cl)c(N[C@@H]2CCC[C@H]2N(C)S(C)(=O)=O)n1` [Example I-170], 2 nM.
The result for `COc1cc(C(=O)NC2CCN(C)CC2)ccc1Nc1ncc(Cl)c(N[C@@H]2CCCC[C@H]2N(C)S(C)(=O)=O)n1` [Example I-162] reads 1 nM; that for `COc1cc(C(=O)NC2CCN(C)CC2)ccc1Nc1ncc(C(F)(F)F)c(N[C@@H]2CCCC[C@H]2NC(=O)CN(C)C)n1` [Example I-17], 15 nM.
The result for `CCN([C@@H]1CCCC[C@H]1Nc1nc(Nc2ccc(NC(C)=O)c(OC)c2)ncc1C(F)(F)F)S(C)(=O)=O` [Example I-189] reads 9 nM; that for `COc1cc(Nc2ncc(Cl)c(N[C@@H]3CCCC[C@H]3NC(C)=O)n2)cc(OC)c1OC` [Example I-190], 13 nM.
In the case of `CCN([C@@H]1CCCC[C@H]1Nc1nc(Nc2ccc(C(=O)NC3CCCN(C)C3)cc2OC)ncc1C(F)(F)F)S(C)(=O)=O` (stereo partly drawn) [Example I-149], half-maximal inhibition (IC50) required 2 nM.
`COCCNC(=O)c1ccc(Nc2ncc(C(F)(F)F)c(N[C@@H]3CCCC[C@H]3N(C)C(C)=O)n2)c(OC)c1` [Example I-110] showed a half-inhibitory concentration (IC50) of 2 nM.
Then `CNCc1ccc(Nc2ncc(C(F)(F)F)c(N[C@@H]3CCCC[C@H]3NC(=O)C3CCC3)n2)c(OC)c1` [Example I-75], with 3 nM.
As for `COc1cc(CN2CCOCC2)ccc1Nc1ncc(C(F)(F)F)c(N[C@@H]2CCCC[C@H]2NC(C)=O)n1` [Example I-115], 1 nM corresponded to half-maximal inhibition (IC50).
Then `COc1cc(C(=O)NC2CCN(C)CC2)ccc1Nc1ncc(C(F)(F)F)c(N[C@@H]2CCCC[C@H]2N(CC2CC2)C(C)=O)n1` [Example I-103], with 7 nM; and `COCCNC(=O)c1ccc(Nc2ncc(Cl)c(N[C@@H]3CCCC[C@H]3NC(C)=O)n2)c(OC)c1` [Example I-65], with 3 nM.
The result for `COc1cc(C(=O)NCCCN(C)C)ccc1Nc1ncc(C(F)(F)F)c(N[C@@H]2CCCC[C@H]2N(C)C(C)=O)n1` [Example I-112] reads 1 nM.
Turning to `COc1cc(CN2CCN(C)CC2)ccc1Nc1ncc(C(F)(F)F)c(N[C@@H]2CCCC[C@H]2NC(C)=O)n1` [Example I-116], the IC50 worked out at 1 nM.
The result for `COc1cc(C(=O)NC2CCCN(C)C2)ccc1Nc1ncc(Br)c(N[C@@H]2CCCC[C@H]2NC(C)=O)n1` (stereo partly drawn) [Example I-45] reads 1 nM; that for `COc1cc(Nc2ncc(C(F)(F)F)c(N[C@@H]3CCCC[C@H]3N(C)S(C)(=O)=O)n2)ccc1NC(C)=O` [Example I-177], 2 nM.
The result for `COc1cc(C(=O)NC2CCN(C)CC2)ccc1Nc1ncc(C(F)(F)F)c(N[C@@H]2CCCC[C@H]2NC(=O)CN2CCN(C)CC2)n1` [Example I-66] reads 200 nM; that for `COc1cc(C(=O)NC2CCCN(C)C2)ccc1Nc1ncc(Cl)c(N[C@@H]2CCCC[C@H]2NC(C)=O)n1` (stereo partly drawn) [Example I-62], 1 nM.
Then `CCNC(=O)c1ccc(Nc2ncc(Cl)c(N[C@@H]3CCCC[C@H]3NC(C)=O)n2)c(OC)c1` [Example I-58], with 3 nM.
Consider `CCN1CCC(NC(=O)c2ccc(Nc3ncc(C(F)(F)F)c(N[C@@H]4CCC[C@H]4N(C)S(C)(=O)=O)n3)c(OC)c2)CC1` [Example I-129], for which the half-inhibitory concentration (IC50) worked out at 0.73 nM.
Then `COc1cc(C(=O)NC2CCC(N(C)C)CC2)ccc1Nc1ncc(C(F)(F)F)c(N[C@@H]2CCCC[C@H]2N(C)C(C)=O)n1` (stereo partly drawn) [Example I-108], with 1 nM; and `COc1cc(N2CCN(C)CC2)ccc1Nc1ncc(C(F)(F)F)c(N[C@@H]2CCCC[C@H]2N(C)S(C)(=O)=O)n1` [Example I-143], with 0.94 nM; and `COc1cc(C(=O)O)ccc1Nc1ncc(C(F)(F)F)c(N[C@@H]2CCCC[C@H]2NC(C)=O)n1` [Example I-89], with 9 nM.
Then `COc1ccc(Nc2ncc(C(F)(F)F)c(N[C@@H]3CCCC[C@H]3NC(=O)CC(C)C)n2)c(OC)c1` [Example I-70], with 440 nM; and `CCN(CC)C(=O)CN[C@@H]1CCCC[C@H]1Nc1nc(Nc2cc(F)c(C(=O)NC3CCN(C)CC3)cc2OC)ncc1C(F)(F)F` [Example I-25], with 24 nM; and `COc1cc(C(=O)N(C)C)ccc1Nc1ncc(Cl)c(N[C@@H]2CCCC[C@H]2NC(C)=O)n1` [Example I-57], with 26 nM.
The result for `COc1cc(C(=O)NC2CCCN(C)C2)ccc1Nc1ncc(C(F)(F)F)c(N[C@H]2CCCC[C@@H]2NC(C)=O)n1` (stereo partly drawn) [Example I-37] reads 400 nM.
